According to patent US6414019B1, “Synergistic mixtures of selected amino acids” (Agrogene Ltd., priority 1997, dated 2002):
Converted amounts (≈) assume the structure as drawn. “And” between values parts separate entries of the source, which are not always exact repeats. Identical values can stand only once. Like-named read-outs stand apart in the source and are kept apart here.

Test system: Phytophthora infestans (resistant to metalaxyl)
Format: in vivo
[1] = 250 mg/L active ingredient, Table 27
[2] = 500 mg/L active ingredient, Table 27
[3] = 1000 mg/L active ingredient, Table 27
[4] = 16 mg/L active ingredient, 7 days post inoculation, Table 8
[5] = 25 mg/L active ingredient, 5 days post inoculation, Table 12
[6] = 62 mg/L active ingredient, 7 days post inoculation, Table 8
[7] = 125 mg/L active ingredient, 4 day post inoculation, Table 7
[8] = 250 mg/L active ingredient, 4 days post inoculation, Table 11
[9] = 250 mg/L active ingredient, 7 days post inoculation, Table 8
[10] = Cultivar Cara, 16 mg/L active ingredient, 5 days post inoculation, Table 3
[11] = Cultivar Cara, 62 mg/L active ingredient, 5 days post inoculation, Table 3
[12] = Cultivar Cara, 250 mg/L active ingredient, 5 days post inoculation, Table 3
[13] = Cultivar Cara, 1000 mg/L active ingredient, 5 days post inoculation, Table 3
[14] = Cultivar Draga, 16 mg/L active ingredient, 5 days post inoculation, Table 3
[15] = Cultivar Draga, 62 mg/L active ingredient, 5 days post inoculation, Table 3
[16] = Cultivar Draga, 250 mg/L active ingredient, 5 days post inoculation, Table 3
[17] = Cultivar Draga, 1000 mg/L active ingredient, 5 days post inoculation, Table 3
[18] = 16 mg/L active ingredient, 5 days post inoculation, Table 2
[19] = 16 mg/L active ingredient, 6 day post inoculation, Table 6
[20] = 62 mg/L active ingredient, 5 days post inoculation, Table 2
[21] = 62 mg/L active ingredient, 6 day post inoculation, Table 6
[22] = 250 mg/L active ingredient, 5 days post inoculation, Table 2
[23] = 250 mg/L active ingredient, 6 day post inoculation, Table 6
[24] = 1000 mg/L active ingredient, 6 day post inoculation, Table 6

CSC(=O)c1cccc2nnsc12 [BION, Acibenzolar-s-methyl]
Percent Disease Control [1]: 13% | Percent Disease Control [2]: 25% | Percent Disease Control [3]: 78% | ED90 (Table 27): 1173 µg/mL (≈ 5580 µM)

CCCCCCCCOC(=O)CC(C)NC(=O)c1ccccc1 (racemic) [N-benzoyl octyl ester derivative of BABA]
Percent Disease Control [4]: 3% | Percent Disease Control (16 mg/L active ingredient, 7 days post inoculation, Table 9): 0% | Percent Disease Control (16 mg/L active ingredient, 7 days post inoculation, Table 10): 0% | Percent Disease Control [5]: 15% | Percent Disease Control [6]: 25% | Percent Disease Control (62 mg/L active ingredient, 7 days post inoculation, Table 9): 0% | Percent Disease Control (62 mg/L active ingredient, 7 days post inoculation, Table 10): 0% | Percent Disease Control [7]: 15% | Percent Disease Control (250 mg/L active ingredient, 4 day post inoculation, Table 7): 25% | Percent Disease Control [8]: 63% | Percent Disease Control [9]: 25% | Percent Disease Control (250 mg/L active ingredient, 7 days post inoculation, Table 9): 0% | Percent Disease Control (250 mg/L active ingredient, 7 days post inoculation, Table 10): 0% | Percent Disease Control (500 mg/L active ingredient, 4 days post inoculation, Table 11): 69% | Percent Disease Control (500 mg/L active ingredient, 5 days post inoculation, Table 12): 25% | Percent Disease Control (1000 mg/L active ingredient, 4 day post inoculation, Table 7): 50% | Percent Disease Control (1000 mg/L active ingredient, 4 days post inoculation, Table 11): 85% | Percent Disease Control (1000 mg/L active ingredient, 5 days post inoculation, Table 12): 50% | Percent Disease Control (1000 mg/L active ingredient, 7 days post inoculation, Table 8): 75% | Percent Disease Control (1000 mg/L active ingredient, 7 days post inoculation, Table 9): 25% | Percent Disease Control (1000 mg/L active ingredient, 7 days post inoculation, Table 10): 25% | Percent Disease Control (2000 mg/L active ingredient, 4 day post inoculation, Table 7): 53% | Percent Disease Control (2000 mg/L active ingredient, 4 days post inoculation, Table 11): 89% | Percent Disease Control (2000 mg/L active ingredient, 5 days post inoculation, Table 12): 53%

CCO[PH](=O)O [Fosetyl − Al, phosetyl-aluminium]
Percent Disease Control [10]: 9% | Percent Disease Control [11]: 24% | Percent Disease Control [12]: 24% | Percent Disease Control [13]: 70% | ED90 (Cultivar Cara, 5 days post inoculation, Table 3): 1390 µg/mL (≈ 12600 µM) | Percent Disease Control [14]: 33% | Percent Disease Control [15]: 33% | Percent Disease Control [16]: 50% | Percent Disease Control [17]: 93% | ED90 (Cultivar Draga, 5 days post inoculation, Table 3): 856 µg/mL (≈ 7780 µM)

CC(N)CC(=O)O (stereo not drawn) [BABA, DLβ-amino-butanoic acid]
Percent Disease Control (16 mg/L active ingredient, 5 day post inoculation, Table 4): 3% | Percent Disease Control [18]: 3% | Percent Disease Control [19]: 22% | Percent Disease Control (16 mg/L active ingredient, 7 days, Table 5): 14% | Percent Disease Control (32 mg/L active ingredient, 5 days post inoculation, Table 1): 0% | Percent Disease Control (62 mg/L active ingredient, 5 day post inoculation, Table 4): 24% | Percent Disease Control [20]: 24% | Percent Disease Control [21]: 22% | Percent Disease Control (62 mg/L active ingredient, 7 days, Table 5): 14% | Percent Disease Control (125 mg/L active ingredient, 5 days post inoculation, Table 1): 0% | Percent Disease Control (250 mg/L active ingredient, 5 day post inoculation, Table 4): 18% | Percent Disease Control (250 mg/L active ingredient, 5 days post inoculation, Table 1): 0% | Percent Disease Control [22]: 18% | Percent Disease Control [23]: 22% | Percent Disease Control (250 mg/L active ingredient, 7 days, Table 5): 14% | Percent Disease Control [1]: 38% | Percent Disease Control [2]: 75% | Percent Disease Control (1000 mg/L active ingredient, 5 day post inoculation, Table 4): 64% | Percent Disease Control (1000 mg/L active ingredient, 5 days post inoculation, Table 1): 13% | Percent Disease Control (1000 mg/L active ingredient, 5 days post inoculation, Table 2): 64% | Percent Disease Control [24]: 69% | Percent Disease Control (1000 mg/L active ingredient, 7 days, Table 5): 36% | Percent Disease Control [3]: 93% | ED90 (7 days): 2617 µg/mL (≈ 25400 µM) | Percent Disease Control [10]: 9% | Percent Disease Control [11]: 9% | Percent Disease Control [12]: 9% | Percent Disease Control [13]: 24% | Percent Disease Control [14]: 0% | Percent Disease Control [15]: 0% | Percent Disease Control [16]: 0% | Percent Disease Control [17]: 53%

CCNC(=O)NC(=O)/C(C#N)=N/OC [Cymoxanil]
Percent Disease Control (4 mg/L active ingredient, 5 days post inoculation, Table 2): 36% | Percent Disease Control [18]: 73% | Percent Disease Control [19]: 83% | Percent Disease Control [20]: 64% | Percent Disease Control [21]: 86% | Percent Disease Control [22]: 98% | Percent Disease Control [23]: 91% | Percent Disease Control [24]: 100% | ED90 (in vivo): 128 µg/mL and 183 µg/mL

[Cu+2].[OH-].[OH-] [Cu(OH)2, copper hydroxide]
Percent Disease Control (4 mg/L active ingredient, 7 days post inoculation, Table 8): 0% | Percent Disease Control [4]: 0% | Percent Disease Control [6]: 13% | Percent Disease Control [9]: 75% | ED90 (7 days post inoculation, Table 8): 298 µg/mL

Cc1ccc(C(C)NC(=O)[C@@H](NC(=O)OC(C)C)C(C)C)cc1 (some centres unmarked) [Fencaramid]
Percent Disease Control (2 mg/L active ingredient, 4 day post inoculation, Table 7): 0% | Percent Disease Control (2 mg/L active ingredient, 5 days post inoculation, Table 12): 0% | Percent Disease Control (8 mg/L active ingredient, 4 day post inoculation, Table 7): 50% | Percent Disease Control (8 mg/L active ingredient, 5 days post inoculation, Table 12): 50% | Percent Disease Control [5]: 100% | Percent Disease Control (31 mg/L active ingredient, 5 days post inoculation, Table 12): 98% | Percent Disease Control (32 mg/L active ingredient, 4 day post inoculation, Table 7): 98% | Percent Disease Control [7]: 100% | ED90 (4 day post inoculation, Table 7): 19 µg/mL (≈ 59.3 µM) | ED90 (5 days post inoculation, Table 12): 19 µg/mL (≈ 59.3 µM)

O=C1c2ccccc2C(=O)N1SC(Cl)(Cl)Cl [FOLPET, Folpet]
Percent Disease Control (4 mg/L active ingredient, 4 days post inoculation, Table 11): 70% | Percent Disease Control (16 mg/L active ingredient, 4 days post inoculation, Table 11): 75% | Percent Disease Control [19]: 81% | Percent Disease Control (62 mg/L active ingredient, 4 days post inoculation, Table 11): 90% | Percent Disease Control [21]: 95% | Percent Disease Control [8]: 95% | Percent Disease Control [23]: 98% | Percent Disease Control [24]: 100% | ED90 (4 days post inoculation, Table 11): 141 µg/mL (≈ 475 µM) | ED90 (6 day post inoculation, Table 6): 84 µg/mL (≈ 283 µM)
